Assay results reported in paper PMC9329353, “Structures of Atm1 provide insight into [2Fe-2S] cluster export from mitochondria” (Nature Communications, 2022).

Assays:
[1] = molecular target: CtAtm1 (ABC transporter of mitochondria 1 from Chaetomium thermophilum), wild type (Chaetomium thermophilum); assay: cryo-EM structure; wild-type CtAtm1 in lipid nanodiscs (MSP1D1), incubated with 1 mM ATP and 2 mM MgCl2 for 30 min on ice, no cargo added; inward-facing open state, 3.0 Å
CtAtm1 [2] = molecular target: T1, CtAtm1 (Thermochaetoides thermophila, UniProt G0SBE6); assay: ATPase assay (phosphate release, absorbance at […] nm); assay type: biochemical; conditions: 1 mM ATP, 5 mM MgCl2, 37 °C, detergent or nanodisc; no exogenous cargo
T1 construct: gene CTHT_0050000; full-length, C-terminal TEV site and His8 (pET-52b-CtATM1-TEV-His8), E. coli C43(DE3); DDM or MSP1D1 nanodiscs; homodimer; first 94 and last 26 residues not modelled (580 modelled)

CtAtm1 [3] = molecular target: T2, CtAtm1 (Thermochaetoides thermophila, UniProt G0SBE6, E603Q); assay: cryo-EM structure, […] Å; conditions: nanodiscs, 1 mM ATP, 1 mM GSSG, 1 mM MgCl2; occluded state; nucleotide-binding domains
T2 construct: gene CTHT_0050000; full-length, C-terminal TEV site and His8 (pET-52b-CtATM1-TEV-His8), E. coli C43(DE3); DDM or MSP1D1 nanodiscs; homodimer; first 94 and last 26 residues not modelled (580 modelled)
T2 sequence (G0SBE6 entry or part of it E603Q): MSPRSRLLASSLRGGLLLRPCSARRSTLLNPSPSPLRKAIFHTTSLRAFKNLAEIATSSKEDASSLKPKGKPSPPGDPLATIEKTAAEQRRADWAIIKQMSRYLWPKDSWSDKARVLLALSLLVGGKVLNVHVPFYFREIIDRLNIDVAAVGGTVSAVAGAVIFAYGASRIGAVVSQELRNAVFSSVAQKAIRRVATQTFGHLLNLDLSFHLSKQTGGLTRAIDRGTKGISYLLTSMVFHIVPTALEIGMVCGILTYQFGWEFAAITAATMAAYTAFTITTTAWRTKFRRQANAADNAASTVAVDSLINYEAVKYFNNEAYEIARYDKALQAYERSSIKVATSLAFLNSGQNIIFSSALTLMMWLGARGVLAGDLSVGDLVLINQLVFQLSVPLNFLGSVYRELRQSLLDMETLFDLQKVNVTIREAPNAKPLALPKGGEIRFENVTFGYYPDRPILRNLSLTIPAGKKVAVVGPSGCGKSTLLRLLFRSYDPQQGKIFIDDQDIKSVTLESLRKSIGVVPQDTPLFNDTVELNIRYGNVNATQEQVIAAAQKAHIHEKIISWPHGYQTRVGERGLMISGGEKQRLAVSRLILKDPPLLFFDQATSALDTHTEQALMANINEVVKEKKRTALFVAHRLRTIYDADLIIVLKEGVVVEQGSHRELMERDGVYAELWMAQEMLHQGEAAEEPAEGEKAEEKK

T1 sequence (G0SBE6 entry or part of it): as the sequence (G0SBE6 entry or part of it E603Q) above, with Q603E counted along it

Molecule	stoichiometry N [1]	ATPase assay (phosphate release, absorbance at 620 nm) (CtAtm1 [2])	cryo-EM structure, 2.8 Å (CtAtm1 [3])
CtAtm1 (ABC transporter of mitochondria 1 from Chaetomium thermophilum), wild type (natural protein)	2		
Nc1ncnc2c1ncn2[C@@H]1O[C@H](COP(=O)(O)OP(=O)(O)OP(=O)(O)O)[C@@H](O)[C@H]1O [ATP]		exhibited clear and comparably robust ATP hydrolysis activity in detergent solution	two ATP molecules are readily identified in the cryo-EM density
